Test results from patent US4774242A, “Tetrahydrobenz(c,d)indoles and pharmaceutical use” (Roussel Uclaf, priority 1986, dated 1988).

Experiments:
[1] = target: T1, dopaminergic receptors (Rattus norvegicus, UniProt P61169); assay: Affinities for the dopaminergic receptors (displacement of spiroperidol 3H, rat striated bodies); format: binding; details: rat striatum, relative to haloperidol = 100, from concentrations inhibiting 50% of specific fixation
T1 construct: Striated bodies removed from the brains of 6 male rats; from tissue; host or cells: rat striatum (striated bodies), membrane fraction
T1 sequence (P61169 whole entry): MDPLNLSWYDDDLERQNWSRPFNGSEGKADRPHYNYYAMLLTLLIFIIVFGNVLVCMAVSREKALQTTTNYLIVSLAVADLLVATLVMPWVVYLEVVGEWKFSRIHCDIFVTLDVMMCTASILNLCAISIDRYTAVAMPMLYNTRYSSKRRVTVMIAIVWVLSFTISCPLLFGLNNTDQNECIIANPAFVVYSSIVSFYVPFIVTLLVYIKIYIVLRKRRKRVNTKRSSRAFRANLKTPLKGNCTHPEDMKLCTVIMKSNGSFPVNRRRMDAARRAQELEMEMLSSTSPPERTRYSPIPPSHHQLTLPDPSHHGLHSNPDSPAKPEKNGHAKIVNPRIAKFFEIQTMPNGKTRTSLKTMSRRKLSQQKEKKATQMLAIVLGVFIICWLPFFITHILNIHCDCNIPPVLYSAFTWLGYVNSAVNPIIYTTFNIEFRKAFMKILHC
Procedure: Striated bodies removed from the brains of 6 male rats weighing an average of 150 g were homogenized at one-twentieth (weight/volume) in 0.32M sucrose. After centrifuging the homogenized mixture at 1000 g for 10 minutes at 0° C., the supernatant was centrifuged at 30,000 g for 15 minutes at +4° C. The residue was taken up in 25 ml of Tris HCl 50 mM pH 7.7 buffer and centrifuged at 30,000 g for 15 minutes at +4° C. The new residue was taken up in 50 ml of Krebs Tris HCl pH 7.3 buffer and the suspension was pre-incubated for 10 minutes at 37° C. Then it was incubated for 29 minutes on a water-bath at +37° C. in the presence of spiroperidol ^3 H alone, with an excess of haloperidol, and with increasing concentrations of the test product. The incubated suspensions were filtered on Whatman GF/C and the filters were washed three times with 5 ml of Tris HCl 50 mM buffer. The radioactivity of the filters is measured by liquid scintillation. The non-specific fixation was determined in parallel by incubation of spiroperidol ^3 H in the presence of an excess of haloperidol. The affinity of the product tested for the dopaminergic receptors is given relative to haloperidol as reference product,
CD=concentration of cold haloperidol inhibiting 50% of the specific fixation of the spiroperidol ^3 H,
CX=concentration of the product under test inhibiting 50% of the specific fixation of the piroperidol ^3 H.
The relative affinity was determined by the relation: [formula]

[2] = Study of the acute toxicity (LD0); format: in vivo; details: oral, mice, maximal dose not causing any mortality over 8 days
Procedure: The lethal doses LD0 of the different compounds tested was evaluated after oral administration in mice and the maximal dose not causing any mortality over 8 days was called the LD0.

[3] = test system: arterial pressure; assay: Determination of hypotensive activity (carotid arterial pressure, anesthetized rats); format: in vivo, male rats of WISTAR strain; details: 0.01 mg/kg intravenous, anesthetized male Wistar rats
Procedure: The hypotensive activity was studied in male rats of WISTAR strain weighing about 300 g and anesthetized with nembutal (50 mg/kg by intraperitoneal route). The test product was administered intravenously in the jugular vein. The arterial pressure in the carotid was measured before and after administration of the test product. The following table indicates the variations expressed in percentage of the arterial pressure after administration of the product under test relative to the initial control arterial pressure.

[4] = test system: enolase γγ; assay: Antianoxic activity: enolase test (kainic acid lesions); format: in vivo; details: intraperitoneal, upwards of a dose of 1 mg/kg, 1 hour after kainic acid, mice
Procedure: Suffering cerebral cells release enolase γγ which is a specific indicator of neuronal lesions. In the test, the lesions were carried out in mice by subcutaneous injection of 35/mg/kg of kainic acid.

SMILES	Relative affinity (Haloperidol = 100) [1]	LD0 [2]	% Variations of the arterial pressure 5 minutes after administration [3]	seral concentration of enolase [4]
c1cc2c3c(c[nH]c3c1)[C@H]1OCCN[C@@H]1C2 (relative stereo) [Example 2, (dl-trans) 2,6,6a,7,8,9,10a-hexahydro-6H-indol-[4,3-g,h]-1,4-benzoxazine]	0.09	> 200 mg/kg	–	–
CCCN1CCO[C@@H]2c3c[nH]c4cccc(c34)C[C@H]21 (relative stereo) [Example 3, (dl-trans) 2,6a,7,8,9,10a-hexahydro-7-propyl-6H-indol-[4,3-g,h]-1,4-benzoxazine]	13	100 mg/kg	< -40%	reduced the seral concentration of enolase
CN1CCO[C@@H]2c3c[nH]c4cccc(c34)C[C@H]21 (relative stereo) [Example 4, (d,l trans) 2,6a,7,8,9,10a-hexahydro-7-methyl 6H-indol-[4,3-g,h]-1,4-benzoxazine]	0.4	–	–	–
